Measurements from patent publication US6011019A, “Vasoactive effects and free radical generation by β-amyloid peptides” (University of South Florida, priority 1996, dated 2000).

Tests used:
aortic rings = assay: β-amyloid augmentation of phenylephrine (PE) induced contraction of aortic rings; set-up: species or system rat; settings: for effect on β-amyloid induced enhancement of PE mediated contraction: β-amyloid 5×10^-7 M, PE 4×10^-8 M, L-NMMA 10^-4 M, indomethacin 10^-5 M, SQ 29548 10^-5 M, catalase 1000 units/ml
Procedure: (§1) The blood vessel preparations were mounted on stainless steel hooks attached to a force-displacement transducer and equilibrated under the optimum tension of 1.3 g for a period of sixty minutes in a tissue bath (10 ml) containing oxygenated (5% CO2 in O2) Kreb's buffer at 37° C. The buffer was changed every fifteen minutes. After equilibration for sixty minutes the viability of the blood vessel with intact endothelium was established by constricting the blood vessel using phenylephrine ([…]). This dose of phenylephrine elicited 80% of the maximum response. […] The vessel preparations were washed for fifteen minutes before various manipulations as described below.
The procedure was then repeated following incubation of the tissue with 10^-6 M β-amyloid for fifteen minutes (P1). The tissue was then rinsed and contractions repeated twice following fifteen minute incubation (P2 & P3) without further addition of β-amyloid. Arrows are shown for points of addition for P3.
Following a fifteen minute incubation, the preparations were contracted with 10^-7 M phenylephrine (PE) as described earlier. Control contractions with PE alone were carried out in presence of the various test compounds. Values represent the mean±SEM of four or more experiments. The heat-inactivated SOD was prepared by placing it in boiling water for thirty minutes followed by cooling prior to use. The hydrogen peroxide-inactivated SOD was prepared by exposing SOD to 10 mM H2 O2 for thirty minutes at pH 8.5 and subsequent separation using Microcon filtration system. The amyloid induced PE contraction was blocked by active SOD. Neither albumin or inactivated SOD had any effect on the amyloid activity.
The effect of preincubation of blood vessel with 10^-6 M β-amyloidon contraction induced by phenylephrine (2, 4, 8, & 16×10^-8 M is shown in Table 1). The maximum contraction in the absence of β-amyloid is taken as 100% and the values obtained following exposure to β-amyloid are expressed as percent of control value. After washing out phenylephrine and acetylcholine of the control contraction, β-amyloid augmented the phenylephrine induced contractions (P1). This effect was blocked by SOD. Washing out the phenylephrine and acetylcholine of the post peptide contraction and repeating the contractions caused further enhancement (P2). Values represent the mean±SEM of nine or more experiments.
The tissue was then incubated for fifteen minutes with β-amyloid (5×10^-7 M) with or without the drug, followed by contractions with PE. The concentrations compounds used were: L-NMMA, an inhibitor of NO synthase (10^-4 M); indomethacin, an inhibitor of the cyclooxygenase pathway (10^-5 M); SQ 29548, a thromboxane A2 receptor antagonist (10^-5 M); and catalase (1000 units/ml). Values are represented as percentage of the maximal contraction obtained with β-amyloid and PE alone and standardized to remove the intrinsic effects (if any) of each drug on PE contraction alone. The results represent the mean±SEM of five or more experiments.

rat aorta = assay: Enhancement of endothelin-1 (ET-1) induced vasoconstriction of rat aorta; settings: for enhancement of ET-1 contraction: peptide 1 μM (Aβ25-35 1 μM and 5 μM) ten minutes prior to first ET-1 dose
Procedure: Normal Sprague-Dawley rats were sacrificed by decapitation, and freshly dissected rat aorta was segmented into rings and suspended in Ringers buffer using a tensiometer linked to the MacLab system. Following a two hour equilibration period, the "pretreatment" contraction was carried out. The aortic rings were contracted using a range of doses of endothelin-1 and relaxed using a single odes of acetylcholing (Ach(10^-7 M)). […] The dose of each Aβ peptide was 1 μM, with the exception of Aβ25-35 (1 μM and 5 μM), and was added ten minutes prior to the first ET-1 dose. For SOD treatment we added 150 U/ml 30 seconds before the addition of Aβ.
Endothelium was removed by gently passing a glass pipette, dipped in saline solution, through the lumen of the aortae several time, allowing the pipette to gently brush the endothelial surface. Endothelium was removed from the aortae prior to hanging in the tissue bath system. Both pre-and post treatment contractions involved a single does of ET-1 (5×10^-9 M).
In all cases the mean difference in percentage contraction in the pre- and post-contractions (before and after addition of test compound respectively) was measured, and compared between the two. Endogenous production of ET-1 was measured using an ET-1 RIA kit (Peninsula Laboratories).

rat coronary arteries = assay: Rat coronary artery constriction and relaxation (U46619, acetylcholine); settings: for constriction of rat coronary artery by the peptide: 10^-6 M peptide
Procedure: The effects of β-amyloid peptide were examined on samples of rat coronary arteries prepared as described above. Referring specifically to FIG. 1, rat coronary arteries were treated with β-amyloid peptide (Aβ40) causing constriction of the coronary arteries.
FIG. 3 illustrates the effect of various amyloid fragments on the constriction of rat coronary arteries. Following control constriction with 10^-7 M U46619, the tissue samples were rinsed, equilibrated with buffer, and treated with 10^-6 M Aβ peptides for fifteen minutes. Following treatment with the Aβ peptides, the blood vessels were rinsed and again exposed to U46619. The values are expressed as percent of control constriction produced by U46619 alone.
The effect of pretreatment of coronary arteries with a single dose (10^-6 M) of A40 on acetylcholine induced relaxation is shown in FIG. 20. The blood vessel was preconstricted with 10^-7 M U46619 and relaxed with increasing doses of acetylcholine (10^-9 M to 10^-5 M).

[1] = tested on: human neuroblastoma cell line (BE(2)-M17); assay: Aβ toxicity on BE(2)-M17 (trypan blue exclusion); assay type: cell-based; settings: same concentrations as HAEC cultures, up to day eight; data not shown
Text: Trypan blue exclusion was used for the cell viability assay.

[2] = tested on: human aortic endothelial cel line (HAEC)
Procedure: (§2) All these cells were maintained at 37° C., under an atmosphere containing 5% CO2. For the present experiments, HAEC and BE(2)-M17 were seeded at densities of 2×10^4 cells per well in 24-23ll clusters.
(§3) The experiments were terminated one half, one, two and three hours post treatment by detachment with Trypsin/EDTA solution and followed by a toxicity assay with trypan blue exclusion. In parallel experiments, cells were attached to a round Thermanox (Nunc) at the bottom of the well, and were stopped three to 24 hours post treatment by fixation with 4% neutral formalin solution which was followed by Hematoxylin-Eosin stain to show morphology.
(§4) Morphological changes in cells were monitored throughout the course of the experiment with an inverse phase-contrast microscope. After termination of the experiments, the cells fixed on the Thermanox were subjected to routine Hematoxylin-Eosin (HE) stain. The morphological characteristics of toxic cells were observed under light microscope and typical results were recorded by photographs.
(§5) For approximate quantification of Aβ toxicity of HAEC, modified procedure for trypan blue exclusion was employed. In brief, the detached cells were resuspended with an appropriate volume of culture media, 20 μl of this cell suspension was mixed with an equivalent volume of 4% Trypan-blue solution thoroughly, and allowed to sit for two minutes after mixing. Approximately 9 μl of the mixture was transferred to a hemocytometer for cell counting. The cell viability was determined by the equation: [formula] In the case of severe toxicity, where some of the cells were lysed, the total cell numbers were adjusted by that of controls. In this experiment, counts for each sample were triplicated.

blood vessel (rat aorta) = assay: Vascular response of blood vessel rings in tissue bath (basal tension, β-amyloid induced vasoactivity)
Procedure: Freshly excised rat and porcine blood vessels were placed in Kreb's bicarbonate buffer equilibrated with 5% CO2 in O2. The buffer composition consisted of 118.2 mM NaCl, 4.7 mM KCl, 1.2 mM MgSO4, 2.5 mM CaCl2, 1.2 mM NaH2 PO4, 23 mM NaHCO3 and 11.2 mM glucose. After cleaning the vessels free of fat and other adhering tissues, the vessels were cut into ring segments of approximately 3 mm in length. Care was taken not to damage the intimal surface.
The endothelium was removed from some preparations by rubbing the inside of the lumen with a metal spatula for six to ten seconds and subsequent rinsing with buffer. The removal of endothelium was confirmed by testing for relaxation to acetylcholine [Furchgott and Zawadzki, 1980].
as §1
Referring to FIG. 10, the arrow indicates the addition of 10^-6 M β-amyloid. The control tissue received no β-amyloid. SOD (150 units/ml) was added thirty seconds prior to the addition of β-amyloid. The maximum contraction induced by β-amyloid was 1.14±0.13 (g) and in presence of SOD the contraction was reduced to 0.04±0.02 (g). Values represent the mean±SEM of five separate experiments.

[3] = tested on: human aortic endothelial cel line (HAEC); assay: Aβ toxicity on HAEC and its prevention (trypan blue exclusion, HE stain); settings: pimozide 10 μM, three hours post treatment
Procedure: as §2, §3, §4, §5

`CNC(=N)NCCC[C@H](N)C(=O)O` [L-NMMA] was tested. Which “effect on β-amyloid induced enhancement of PE mediated contraction” value (shortened to “effect on β-amyloid induced enhancement”) (aortic rings) did it give?
The value was “None of the compounds exerted any significant effect”.

How did the “ET-1 contraction with the compound alone” value (rat aorta; verapamil 50 μM) turn out when `COc1ccc(CCN(C)CCCC(C#N)(c2ccc(OC)c(OC)c2)C(C)C)cc1OC` (stereo not shown) [verapamil] was run?
Its value is “caused enhancement of contraction”.

What about the “effect on Aβ enhancement of ET-1 contraction” value (rat aorta; verapamil 50 μM two minutes before Aβ, endothelium present) of the same compound?
The value was “had no effect on Aβ enhancement”.

Which “effect on β-amyloid induced enhancement” value (aortic rings) does the source give for catalase here?
The value was “None of the compounds exerted any significant effect”.

With `COc1ccc2c(c1)c(CC(=O)O)c(C)n2C(=O)c1ccc(Cl)cc1` [indomethacin] as the compound, how does the “effect on β-amyloid induced enhancement” value (aortic rings) read?
Its value is “None of the compounds exerted any significant effect”.

For Aβ1-28: β-amyloid peptide fragment 1-28, which “constriction of rat coronary artery by the peptide” value (rat coronary arteries) is on record?
Its value is “induce constriction of the coronary artery”.

How did the “constriction of rat coronary artery by the peptide” value (rat coronary arteries) turn out when “Aβ25-35: fragment of Aβ, widely regarded to be the neurotoxic fragment (GSNKGAIIGLM; Amyloid-beta protein 42; UniProt P05067 696-706, looked up, fragment)” was run?
The value was “induce constriction of the coronary artery”.

And the “toxic effect on differentiated BE(2)-M17 cells” value [1]?
The value was “not toxic effect was noticed”.

What about the “enhancement of ET-1 contraction” value (rat aorta) of the same compound?
The value was “unable to enhance contraction even at five times the concentration of Aβ1-40”.

And the “cell morphology by HE staining” value [2]?
Its value is “highly vacuolized cytoplasm, blebbing cell membranes and swelling cell bodies”.

And the “cell viability one half hour post treatment” value [2]?
Its value is “significant reduction of cell viability”.

And the “time and dose dependence of toxic effects on HAEC” value [2]?
The value was “time-and dose-dependent manner”.

How did the “protection against β-amyloid enhancement of PE induced contraction” value (aortic rings; preincubation before 10^-6 M β-amyloid, 10^-7 M PE) turn out when albumin was run?
Its value is “did not protect”.

Which results are given for `CNC[C@H](O)c1cccc(O)c1` [phenylephrine]?
Emax at 1000 µM (blood vessel (rat aorta); Rattus norvegicus, phenylephrine (1 mM), viability test of vessel, read-out: response elicited, of the maximum response): 80%; constriction of blood vessel (blood vessel (rat aorta); with or without endothelium): constricted in response to phenylephrine with or without endothelium

Which “constriction of rat coronary artery by vasoconstrictor” value (rat coronary arteries; 10^-7 M) does the source give for `CCCCC[C@H](O)/C=C/[C@@H]1[C@@H](C/C=C\CCCC(=O)O)[C@H]2CO[C@@H]1C2` [U46619] here?
The value was “caused constriction of the blood vessel”.

`O=c1[nH]c2ccccc2n1C1CCN(CCCC(c2ccc(F)cc2)c2ccc(F)cc2)CC1` [pimozide] was tested. Which “own toxicity of the blocker on HAEC” value [3] did it give?
Its value is “seems to be toxic itself”.

`Oc1ncnc2[nH]ncc12` [allopurinol] was tested. Which “effect of allopurinol on Aβ enhancement” value (rat aorta) did it give?
The value was “No effect on Aβ enhancement”.

“Aβ1-42: β-amyloid peptide with forty-two amino acids; supplied by RBI and/or MD Enterprise” was tested. Which “toxic effect on differentiated BE(2)-M17 cells” value [1] did it give?
The value was “not toxic effect was noticed”.

What about the “enhancement of vasoconstriction compared with Aβ1-40” value (rat aorta) of the same compound?
Its value is “decreased enhancement of vasoconstriction”.

And the “enhancement of ET-1 contraction” value (rat aorta)?
The value was “also enhanced the ET-1 contraction”.

And the “cell morphology by HE staining” value [2]?
Its value is “highly vacuolized cytoplasm, blebbing cell membranes and swelling cell bodies”.

What about the “cell viability one half hour post treatment” value [2] of the same compound?
Its value is “significant reduction of cell viability”.

What about the “time and dose dependence of toxic effects on HAEC” value [2] of the same compound?
The value was “time-and dose-dependent manner”.

With `O=C(O)CCC/C=C\C[C@@H]1[C@H](CNNC(=O)Nc2ccccc2)[C@H]2CC[C@@H]1O2` [SQ 29548] as the compound, how does the “effect on β-amyloid induced enhancement” value (aortic rings) read?
The value was “None of the compounds exerted any significant effect”.
